The results in this text go back to publication PMC5218480 (PLoS ONE, 2017).

The experiment concerns MV-4-11 cells. The experiment can be described thus: Gene expression microarray analysis (Affymetrix PrimeView) and GSEA. The conditions noted are these: ProbeSet 11743362_s_at; LIST B. The format is cell-based, human. Further details: RFU PODN (11730768_x_at) / Fold change /veh PODN (11730768_x_at) / RFU LINC00158 (11744669_a_at) / Fold change /veh LINC00158 (11744669_a_at) / RFU DUSP10 (11751237_a_at) / Fold change /veh DUSP10 (11751237_a_at) / RFU ID3 (11757404_x_at) / Fold change /veh ID3 (11757404_x_at) / RFU PLEKHG5 (11737974_s_at) / Fold change /veh PLEKHG5 (11737974_s_at) / RFU LRRC4B (11730491_at) / Fold change /veh LRRC4B (11730491_at) / RFU GIMAP4 (11747438_a_at) / Fold change /veh GIMAP4 (11747438_a_at) / RFU KRT8 (11758183_x_at) / Fold change /veh KRT8 (11758183_x_at) / RFU CNN1 (11734310_a_at) / Fold change /veh CNN1 (11734310_a_at) / RFU VPS37D (11726825_at) / Fold change /veh VPS37D (11726825_at) / RFU C10orf10 (11716522_x_at) / Fold change /veh C10orf10 (11716522_x_at) / RFU KIR2DL2 /// KIR2DL4 /// KIR2DL5A /// KIR2DL5B /// KIR2DS1 /// KIR2DS2 /// KIR2DS3 /// KIR2DS4 /// KIR3DL3 /// KIR3DL3 /// KIR3DS1 (11738374_at) / Fold change /veh KIR2DL2 /// KIR2DL4 /// KIR2DL5A /// KIR2DL5B /// KIR2DS1 /// KIR2DS2 /// KIR2DS3 /// KIR2DS4 /// KIR3DL3 /// KIR3DL3 /// KIR3DS1 (11738374_at) / RFU C1QL1 (11718748_at) / Fold change /veh C1QL1 (11718748_at) / RFU TMPRSS4 (11747572_a_at) / Fold change /veh TMPRSS4 (11747572_a_at) / RFU HAMP (11756126_x_at) / Fold change /veh HAMP (11756126_x_at) / RFU RNFT2 (11725882_a_at) / Fold change /veh RNFT2 (11725882_a_at) / RFU NR4A2 (11747474_a_at) / Fold change /veh NR4A2 (11747474_a_at) / RFU ABCC12 (11746883_a_at) / Fold change /veh ABCC12 (11746883_a_at) / RFU TMEM136 (11760407_x_at) / Fold change /veh TMEM136 (11760407_x_at) / RFU CLDN22 /// WWC2 (11732394_at) / Fold change /veh CLDN22 /// WWC2 (11732394_at) / RFU HLA-DPB1 (11760878_x_at) / Fold change /veh HLA-DPB1 (11760878_x_at) / RFU SPINT1 (11716480_a_at) / Fold change /veh SPINT1 (11716480_a_at) / RFU GAP43 (11754022_s_at) / Fold change /veh GAP43 (11754022_s_at) / RFU A4GNT (11735810_at) / Fold change /veh A4GNT (11735810_at) / RFU PRB3 (11715151_x_at) / Fold change /veh PRB3 (11715151_x_at) / RFU TUBB4B (11761932_at) / Fold change /veh TUBB4B (11761932_at) / RFU CAPN14 (11732068_a_at) / Fold change /veh CAPN14 (11732068_a_at) / RFU TMCC2 (11721928_a_at) / Fold change /veh TMCC2 (11721928_a_at) / RFU IRGQ (11745062_a_at) / Fold change /veh IRGQ (11745062_a_at) / RFU FAM174B (11720279_a_at) / Fold change /veh FAM174B (11720279_a_at) / RFU TMPRSS4 (11748680_a_at) / Fold change /veh TMPRSS4 (11748680_a_at) / RFU FAM212B (11763350_a_at) / Fold change /veh FAM212B (11763350_a_at) / RFU PLEKHG5 (11743358_a_at) / Fold change /veh PLEKHG5 (11743358_a_at) / RFU ZSCAN30 (11745921_a_at) / Fold change /veh ZSCAN30 (11745921_a_at) / RFU CMKLR1 (11741424_a_at) / Fold change /veh CMKLR1 (11741424_a_at) / RFU LOC101060620 /// MAPK8IP1 (11723275_at) / Fold change /veh LOC101060620 /// MAPK8IP1 (11723275_at) / RFU SPTSSB (11747773_x_at) / Fold change /veh SPTSSB (11747773_x_at) / RFU PRSS12 (11739890_at) / Fold change /veh PRSS12 (11739890_at) / RFU BIN1 (11741810_x_at) / Fold change /veh BIN1 (11741810_x_at) / RFU WNT11 (11732464_a_at) / Fold change /veh WNT11 (11732464_a_at) / RFU C10orf10 (11716521_a_at) / Fold change /veh C10orf10 (11716521_a_at) / RFU C5orf56 (11738089_at) / Fold change /veh C5orf56 (11738089_at) / RFU CYB561 (11721691_x_at) / Fold change /veh CYB561 (11721691_x_at) / RFU ANKRD19P (11752326_a_at) / Fold change /veh ANKRD19P (11752326_a_at) / RFU OR2T12 /// OR2T33 /// OR2T8 (11738714_s_at) / Fold change /veh OR2T12 /// OR2T33 /// OR2T8 (11738714_s_at) / RFU VCAN (11748164_a_at) / Fold change /veh VCAN (11748164_a_at) / RFU JSRP1 (11732532_at) / Fold change /veh JSRP1 (11732532_at) / RFU KRTAP10-11 (11738290_x_at) / Fold change /veh KRTAP10-11 (11738290_x_at) / RFU MYO3A (11730013_a_at) / Fold change /veh MYO3A (11730013_a_at) / RFU EBF3 (11725865_a_at) / Fold change /veh EBF3 (11725865_a_at) / RFU CAMK2N1 (11719241_x_at) / Fold change /veh CAMK2N1 (11719241_x_at) / RFU C5orf56 (11738088_a_at) / Fold change /veh C5orf56 (11738088_a_at) / RFU OLFML3 (11715873_a_at) / Fold change /veh OLFML3 (11715873_a_at) / RFU LOC100653217 /// NTM (11731650_a_at) / Fold change /veh LOC100653217 /// NTM (11731650_a_at) / RFU MAPK11 (11762145_a_at) / Fold change /veh MAPK11 (11762145_a_at) / RFU FIZ1 (11724087_x_at) / Fold change /veh FIZ1 (11724087_x_at) / RFU OASL (11726364_x_at) / Fold change /veh OASL (11726364_x_at) / RFU SOX15 (11748057_x_at) / Fold change /veh SOX15 (11748057_x_at) / RFU CD79A (11719716_a_at) / Fold change /veh CD79A (11719716_a_at) / RFU HIST1H1D (11736915_at) / Fold change /veh HIST1H1D (11736915_at) / RFU CASKIN2 (11723855_a_at) / Fold change /veh CASKIN2 (11723855_a_at) / RFU LOC730098 (11760151_x_at) / Fold change /veh LOC730098 (11760151_x_at) / RFU OR4N2 (11742367_at) / Fold change /veh OR4N2 (11742367_at) / RFU PRRT2 (11749266_a_at) / Fold change /veh PRRT2 (11749266_a_at) / RFU SNX32 (11753110_a_at) / Fold change /veh SNX32 (11753110_a_at) / RFU CDHR5 (11726645_a_at) / Fold change /veh CDHR5 (11726645_a_at) / RFU RCAN1 (11760418_a_at) / Fold change /veh RCAN1 (11760418_a_at) / RFU FAM167A (11723789_a_at) / Fold change /veh FAM167A (11723789_a_at) / RFU FAM26E (11764081_at) / Fold change /veh FAM26E (11764081_at) / RFU ISYNA1 (11749810_s_at) / Fold change /veh ISYNA1 (11749810_s_at) / RFU ACY1 (11761880_at) / Fold change /veh ACY1 (11761880_at) / RFU 11764098_at / Fold change /veh 11764098_at / RFU SAMD14 (11745864_x_at) / Fold change /veh SAMD14 (11745864_x_at) / RFU NPB (11741838_a_at) / Fold change /veh NPB (11741838_a_at) / RFU TMPRSS6 (11731388_a_at) / Fold change /veh TMPRSS6 (11731388_a_at) / RFU KRTAP10-2 (11738614_at) / Fold change /veh KRTAP10-2 (11738614_at) / RFU ARHGAP8 /// PRR5-ARHGAP8 (11727945_x_at) / Fold change /veh ARHGAP8 /// PRR5-ARHGAP8 (11727945_x_at) / RFU KRTAP5-7 /// NADSYN1 (11734609_at) / Fold change /veh KRTAP5-7 /// NADSYN1 (11734609_at) / RFU RASL12 (11751679_a_at) / Fold change /veh RASL12 (11751679_a_at) / RFU CDKN2B (11736163_a_at) / Fold change /veh CDKN2B (11736163_a_at) / RFU PRF1 (11729649_at) / Fold change /veh PRF1 (11729649_at) / RFU, ZNF638 /// ZNF638-IT1 / Fold change vs veh, ZNF638 /// ZNF638-IT1 / RFU, PANK3 / Fold change vs veh, PANK3 / RFU, SH3YL1 / Fold change vs veh, SH3YL1 / RFU, ZEB2 / Fold change vs veh, ZEB2 / RFU, NRIP1 / Fold change vs veh, NRIP1 / RFU, PTTG1IP / Fold change vs veh, PTTG1IP / RFU, CAPN2 / Fold change vs veh, CAPN2 / RFU, MED14 / Fold change vs veh, MED14 / RFU, SNORA58 / Fold change vs veh, SNORA58 / RFU, C1orf63 / Fold change vs veh, C1orf63 / RFU, LRRFIP1 / Fold change vs veh, LRRFIP1 / RFU, NDUFAF7 / Fold change vs veh, NDUFAF7 / RFU, SLC12A2 / Fold change vs veh, SLC12A2 / RFU, IBTK / Fold change vs veh, IBTK / RFU, ESF1 / Fold change vs veh, ESF1 / Fold change vs veh, TMEM50B / RFU, TAOK1 / Fold change vs veh, TAOK1 / RFU, ACBD3 / Fold change vs veh, ACBD3 / RFU, TMA16 / Fold change vs veh, TMA16 / RFU, RWDD3 / Fold change vs veh, RWDD3 / RFU, BCAT1 / Fold change vs veh, BCAT1 / RFU, EDEM3 / Fold change vs veh, EDEM3 / RFU, TMEM33 / Fold change vs veh, TMEM33 / RFU, WDR75 / Fold change vs veh, WDR75 / RFU, AHCTF1 / Fold change vs veh, AHCTF1 / RFU, TFRC / Fold change vs veh, TFRC / RFU, ZDHHC17 / Fold change vs veh, ZDHHC17 / RFU, NOM1 / Fold change vs veh, NOM1 / RFU, ARL8B / Fold change vs veh, ARL8B / RFU, ZBTB11 / Fold change vs veh, ZBTB11 / RFU, TAMM41 / Fold change vs veh, TAMM41 / RFU, KIAA1704 /// LOC100996395 / Fold change vs veh, KIAA1704 /// LOC100996395 / RFU, ING1 / Fold change vs veh, ING1 / RFU, TRMT61B / Fold change vs veh, TRMT61B / RFU, FUBP3 / Fold change vs veh, FUBP3 / RFU, TP53 / Fold change vs veh, TP53 / RFU, TNKS2 / Fold change vs veh, TNKS2 / RFU, ZFP14 / Fold change vs veh, ZFP14 / RFU, ACTR2 / Fold change vs veh, ACTR2 / RFU, PPP3R1 / Fold change vs veh, PPP3R1 / RFU, PIK3R1 / Fold change vs veh, PIK3R1 / RFU, HNRNPA1 / Fold change vs veh, HNRNPA1 / RFU, RNF170 / Fold change vs veh, RNF170 / RFU, ZNF28 / Fold change vs veh, ZNF28 / RFU, RNGTT / Fold change vs veh, RNGTT / RFU, OGT / Fold change vs veh, OGT / RFU, BRD1 / Fold change vs veh, BRD1 / RFU, MARS / Fold change vs veh, MARS / RFU, ZNF655 / Fold change vs veh, ZNF655 / RFU, FAHD1 / Fold change vs veh, FAHD1 / RFU, BDP1 / Fold change vs veh, BDP1 / RFU, LRRCC1 / Fold change vs veh, LRRCC1 / RFU, ARID1A / Fold change vs veh, ARID1A / RFU, ZNF146 / Fold change vs veh, ZNF146 / RFU, ZNF330 / Fold change vs veh, ZNF330 / RFU, GPN3 / Fold change vs veh, GPN3 / RFU, C9orf123 / Fold change vs veh, C9orf123 / RFU, N4BP2L2 / Fold change vs veh, N4BP2L2 / RFU, ARFIP1 / Fold change vs veh, ARFIP1 / RFU, FAM179B / Fold change vs veh, FAM179B / RFU, BCL10 / Fold change vs veh, BCL10 / RFU, UHRF1BP1L / Fold change vs veh, UHRF1BP1L / RFU, BET1 / Fold change vs veh, BET1 / RFU, CNOT2 / Fold change vs veh, CNOT2 / RFU, ZNF268 / Fold change vs veh, ZNF268 / Fold change vs veh, ZNF507 / RFU, DGCR2 / Fold change vs veh, DGCR2 / RFU, WDSUB1 / Fold change vs veh, WDSUB1 / Fold change vs veh, HSP90B1 /// MIR3652 / RFU, ADSS / Fold change vs veh, ADSS / RFU, GK / Fold change vs veh, GK / RFU, ZNF148 / Fold change vs veh, ZNF148 / RFU, TAF9 / Fold change vs veh, TAF9 / RFU, SLC1A5 / Fold change vs veh, SLC1A5 / RFU, SLMO2 / Fold change vs veh, SLMO2 / RFU, ABCC4 / Fold change vs veh, ABCC4 / RFU, LOC101060439 /// RAP1B / Fold change vs veh, LOC101060439 /// RAP1B / RFU, RFX7 / Fold change vs veh, RFX7 / RFU, GTPBP10 / Fold change vs veh, GTPBP10 / RFU, CNEP1R1 / Fold change vs veh, CNEP1R1 / RFU, BIVM-ERCC5 /// ERCC5 / Fold change vs veh, BIVM-ERCC5 /// ERCC5 / RFU, ILF3 / Fold change vs veh, ILF3 / RFU 11762660_at / Fold change /veh 11762660_at / RFU VCAN (11757783_s_at) / Fold change /veh VCAN (11757783_s_at) / RFU DDX43 (11728927_at) / Fold change /veh DDX43 (11728927_at) / RFU KRT8 (11758188_x_at) / Fold change /veh KRT8 (11758188_x_at) / RFU NKD1 (11759106_at) / Fold change /veh NKD1 (11759106_at) / RFU SRD5A1 (11742802_a_at) / Fold change /veh SRD5A1 (11742802_a_at) / RFU TPSAB1 /// TPSB2 (11721975_s_at) / Fold change /veh TPSAB1 /// TPSB2 (11721975_s_at) / RFU GSTM3 (11746129_a_at) / Fold change /veh GSTM3 (11746129_a_at) / RFU IL23R (11737362_x_at) / Fold change /veh IL23R (11737362_x_at) / RFU TMEM51 (11727254_a_at) / Fold change /veh TMEM51 (11727254_a_at) / RFU PIWIL2 (11732686_x_at) / Fold change /veh PIWIL2 (11732686_x_at) / RFU ORM1 (11744905_x_at) / Fold change /veh ORM1 (11744905_x_at) / RFU CCDC152 (11743942_at) / Fold change /veh CCDC152 (11743942_at) / RFU ECM1 (11717891_a_at) / Fold change /veh ECM1 (11717891_a_at) / RFU IL23R (11748794_a_at) / Fold change /veh IL23R (11748794_a_at) / RFU TNFAIP8L3 (11732012_x_at) / Fold change /veh TNFAIP8L3 (11732012_x_at) / RFU MBOAT4 (11741988_at) / Fold change /veh MBOAT4 (11741988_at) / RFU 11764193_at / Fold change /veh 11764193_at / RFU TMEM53 (11763286_at) / Fold change /veh TMEM53 (11763286_at) / RFU MAGEB2 (11727129_at) / Fold change /veh MAGEB2 (11727129_at) / RFU TMEM200A (11744735_a_at) / Fold change /veh TMEM200A (11744735_a_at) / RFU CCDC152 (11751479_a_at) / Fold change /veh CCDC152 (11751479_a_at) / RFU FAM211A (11726209_a_at) / Fold change /veh FAM211A (11726209_a_at) / RFU RGS16 (11746705_a_at) / Fold change /veh RGS16 (11746705_a_at) / RFU VCAN (11755009_s_at) / Fold change /veh VCAN (11755009_s_at) / RFU RHOB (11743442_s_at) / Fold change /veh RHOB (11743442_s_at) / RFU RGS16 (11720943_a_at) / Fold change /veh RGS16 (11720943_a_at) / RFU RGS16 (11720944_at) / Fold change /veh RGS16 (11720944_at) / RFU, VPS4B / Fold change vs veh, VPS4B / RFU, CREB1 / Fold change vs veh, CREB1 / RFU, DNAJC13 / Fold change vs veh, DNAJC13 / RFU, GNAQ / Fold change vs veh, GNAQ / RFU, CDK5R1 / Fold change vs veh, CDK5R1 / RFU, ZRANB3 / Fold change vs veh, ZRANB3 / RFU, CUL4A / Fold change vs veh, CUL4A / RFU, CCNY / Fold change vs veh, CCNY / RFU, UFL1 / Fold change vs veh, UFL1 / RFU, COG3 / Fold change vs veh, COG3 / RFU, DIAPH2 / Fold change vs veh, DIAPH2 / RFU, SKA2 / Fold change vs veh, SKA2 / RFU, AFF3 / Fold change vs veh, AFF3 / RFU, LMF1 / Fold change vs veh, LMF1 / RFU, IPO11 / Fold change vs veh, IPO11 / RFU, DFFB / Fold change vs veh, DFFB / RFU, FOXP1 / Fold change vs veh, FOXP1 / RFU, CARD8 / Fold change vs veh, CARD8 / RFU, STRN3 / Fold change vs veh, STRN3 / RFU, ADK / Fold change vs veh, ADK / RFU, RASSF2 / Fold change vs veh, RASSF2 / RFU, WIPF1 / Fold change vs veh, WIPF1 / RFU, LARP1B / Fold change vs veh, LARP1B / RFU, RASA1 / Fold change vs veh, RASA1 / RFU, RB1 / Fold change vs veh, RB1 / RFU, PPFIA1 / Fold change vs veh, PPFIA1 / RFU, MAT2A / Fold change vs veh, MAT2A / RFU, CCT5 / Fold change vs veh, CCT5 / RFU, WDR92 / Fold change vs veh, WDR92 / RFU, CUX1 / Fold change vs veh, CUX1 / RFU, TTC7A / Fold change vs veh, TTC7A / RFU, TMEM135 / Fold change vs veh, TMEM135 / RFU, DEPTOR / Fold change vs veh, DEPTOR / RFU, CPM / Fold change vs veh, CPM / RFU, DNAJB6 / Fold change vs veh, DNAJB6 / RFU, CACNA2D3 / Fold change vs veh, CACNA2D3 / RFU, DTX4 / Fold change vs veh, DTX4 / RFU, TFCP2 / Fold change vs veh, TFCP2 / RFU, GMCL1 /// GMCL1P1 / Fold change vs veh, GMCL1 /// GMCL1P1 / RFU, AEBP2 / Fold change vs veh, AEBP2 / RFU, SNHG1 /// SNORD22 /// SNORD25 /// SNORD26 /// SNORD27 /// SNORD28 /// SNORD29 /// SNORD31 / Fold change vs veh, SNHG1 /// SNORD22 /// SNORD25 /// SNORD26 /// SNORD27 /// SNORD28 /// SNORD29 /// SNORD31 / Fold change (Aza/veh), C12orf56 (ProbeSet 11735607_a_at) / Fold change (ACY-1035/veh), C12orf56 (ProbeSet 11735607_a_at) / Fold change (Aza/veh), FGFR1OP (ProbeSet 11751329_s_at) / Fold change (ACY-1035/veh), FGFR1OP (ProbeSet 11751329_s_at) / Fold change (Aza/veh), VPS36 (ProbeSet 11739960_a_at) / Fold change (ACY-1035/veh), VPS36 (ProbeSet 11739960_a_at) / RFU SYPL1 (11715823_x_at) / Fold change /veh SYPL1 (11715823_x_at) / RFU IGFBP7 (11715501_s_at) / Fold change /veh IGFBP7 (11715501_s_at) / RFU REEP3 (11722064_at) / Fold change /veh REEP3 (11722064_at) / RFU IGLL1 (11728026_x_at) / Fold change /veh IGLL1 (11728026_x_at): dose or concentration left out as unconfirmed.

Take `Nc1ncn([C@@H]2O[C@H](CO)[C@@H](O)[C@H]2O)c(=O)n1` [azacitidine]: the “Fold change vs veh, ADSS” value worked out at 0.89.
